Source: US20230151025A1, “SUBSTITUTED THIAZOLOPYRIDINES, SALTS THEREOF AND THEIR USE AS HERBICIDALLY ACTIVE SUBSTANCES” (Bayer Aktiengesellschaft, priority 2020, published 2023)

Assays:
Assay type in all cases: in vivo
[1] = test system: Alopecurus myosuroides (ALOMY); assay: Herbicidal pre-emergence action (A), 1280 g/ha; settings: visual grading after ca. 3 weeks vs untreated controls, 100% = plants have died off, 0% = as control plants
Text: (§1) ABUTH: Abutilon theophrasti AGSTE: Agrostis tenuis ALOMY: Alopecurus myosuroides AMARE Amaranthus retroflexus DIGSA: Digitaria sanguinalis ECHCG: Echinochloa crus-galli KCHSC: Kochia scoparia LOLRI: Lolium rigidum MATIN: Matricaria inodora POAAN: Poa annua POLCO: Polygonum convolvulus SETVI: Setaria viridis STEME: Stellaria media VERPE: Veronica persica VIOTR: Viola tricolor
(§2) Seeds of mono- and dicotyledonous weed plants were sown in plastic pots (double sowings with one species of mono- and one species of dicotyledonous weed plants per pot), in sandy loam, and covered with soil. The compounds according to the invention, formulated in the form of wettable powders (WP) or as emulsifiable concentrates (EC), were applied to the surface of the covering soil as aqueous suspension or emulsion, with the addition of 0.5% of an additive, at an application rate of 600 l of water per hectare (converted). Following treatment, the pots were placed in a greenhouse and kept under optimum growth conditions for the test plants. The visual grading of the damage to the test plants was carried out after ca. 3 weeks in comparison to untreated controls (herbicidal effect in percent (%): 100% effect=plants have died off, 0% effect=as control plants).
(§3) Tables A1 to A12, below, show the effects of selected compounds of the general formula (I) according to table 1 on various harmful plants and an application rate corresponding to 1280 g/ha obtained by the experimental procedure mentioned above.

[2] = test system: Digitaria sanguinalis (DIGSA); assay: Herbicidal pre-emergence action (A), 1280 g/ha; settings: visual grading after ca. 3 weeks vs untreated controls, 100% = plants have died off, 0% = as control plants
Text: as §1, §2, §3

[3] = test system: Echinochloa crus-galli (ECHCG); assay: Herbicidal pre-emergence action (A), 1280 g/ha; settings: visual grading after ca. 3 weeks vs untreated controls, 100% = plants have died off, 0% = as control plants
Text: as §1, §2, §3

Lolium rigidum (LOLRI) = assay: Herbicidal pre-emergence action (A), 1280 g/ha; settings: visual grading after ca. 3 weeks vs untreated controls, 100% = plants have died off, 0% = as control plants
Text: as §1, §2, §3

Poa annua (POAAN) [4] = assay: Herbicidal pre-emergence action (A), 1280 g/ha; settings: visual grading after ca. 3 weeks vs untreated controls, 100% = plants have died off, 0% = as control plants
Text: as §1, §2, §3

Setaria viridis (SETVI) = assay: Herbicidal pre-emergence action (A), 1280 g/ha; settings: visual grading after ca. 3 weeks vs untreated controls
Text: as §1, §2, §3

Stellaria media (STEME) [5] = assay: Herbicidal pre-emergence action (A), 1280 g/ha; settings: visual grading after ca. 3 weeks vs untreated controls
Text: as §1, §2, §3

Veronica persica (VERPE) [6] = assay: Herbicidal pre-emergence action (A), 1280 g/ha; settings: visual grading after ca. 3 weeks vs untreated controls
Text: as §1, §2, §3

[7] = test system: Amaranthus retroflexus (AMARE); assay: Herbicidal post-emergence action (B), 1280 g/ha; settings: rated visually after about 3 weeks vs untreated controls
Text: as §1
(§4) Seeds of mono- and dicotyledonous weed plants were placed in plastic pots in sandy loam soil (doubly sown with in each case one species of mono- or dicotyledonous weed plants per pot), covered with soil and cultivated in a greenhouse under controlled growth conditions. 2 to 3 weeks after sowing, the test plants were treated at the one-leaf stage. The compounds of the invention, formulated in the form of wettable powders (WP) or as emulsion concentrates (EC), were applied onto the green parts of the plants as aqueous suspension or emulsion with addition of 0.5% additive at a water application rate of 600 liters per hectare (converted). After the test plants had been kept in the greenhouse under optimum growth conditions for about 3 weeks, the activity of the preparations was rated visually in comparison to untreated controls. For example, 100% activity=the plants have died, 0% activity=like control plants.
(§5) Tables B1 to B12, below, show the effects of selected compounds of the general formula (I) according to table 1 on various harmful plants and an application rate corresponding to 1280 g/ha obtained by the experimental procedure mentioned above.

[8] = test system: Kochia scoparia (KCHSC; Bassia scoparia); assay: Herbicidal post-emergence action (B), 1280 g/ha
Text: as §1, §4, §5

Stellaria media (STEME) [9] = assay: Herbicidal post-emergence action (B), 1280 g/ha
Text: as §1, §4, §5

Veronica persica (VERPE) [10] = assay: Herbicidal post-emergence action (B), 1280 g/ha
Text: as §1, §4, §5

[11] = test system: Kochia scoparia (KCHSC; Bassia scoparia); assay: Herbicidal pre-emergence action (A), 1280 g/ha; settings: visual grading after ca. 3 weeks vs untreated controls
Text: as §1, §2, §3

[12] = test system: Echinochloa crus-galli (ECHCG); assay: Herbicidal post-emergence action (B), 1280 g/ha; settings: rated visually after about 3 weeks vs untreated controls
Text: as §1, §4, §5

Poa annua (POAAN) [13] = assay: Herbicidal post-emergence action (B), 1280 g/ha; settings: rated visually after about 3 weeks vs untreated controls
Text: as §1, §4, §5

[14] = test system: Amaranthus retroflexus (AMARE); assay: Herbicidal pre-emergence action (A), 1280 g/ha; settings: visual grading after ca. 3 weeks vs untreated controls
Text: as §1, §2, §3

[15] = test system: Matricaria inodora (MATIN); assay: Herbicidal pre-emergence action (A), 1280 g/ha; settings: visual grading after ca. 3 weeks vs untreated controls
Text: as §1, §2, §3

[16] = test system: Alopecurus myosuroides (ALOMY); assay: Herbicidal post-emergence action (B), 1280 g/ha; settings: rated visually after about 3 weeks vs untreated controls
Text: as §1, §4, §5

Row | Structure (SMILES) | ALOMY, herbicidal effect in percent (%) [1] [%] | DIGSA, herbicidal effect in percent (%) [2] [%] | ECHCG, herbicidal effect in percent (%) [3] [%] | LOLRI, herbicidal effect in percent (%) (Lolium rigidum (LOLRI)) | POAAN, herbicidal effect in percent (%) (Poa annua (POAAN) [4]) | herbicidal effect SETVI (Setaria viridis (SETVI)) [%] | herbicidal effect STEME (Stellaria media (STEME) [5]) [%] | herbicidal effect VERPE (Veronica persica (VERPE) [6]) [%] | herbicidal activity AMARE [7] [%] | herbicidal effect KCHSC [8] [%] | herbicidal effect STEME (Stellaria media (STEME) [9]) [%] | herbicidal effect VERPE (Veronica persica (VERPE) [10]) [%] | herbicidal effect KCHSC [11] [%] | herbicidal activity ECHCG [12] [%] | herbicidal activity POAAN (Poa annua (POAAN) [13]) [%] | herbicidal effect AMARE [14] [%] | herbicidal effect MATIN [15] [%] | herbicidal activity ALOMY [16] [%]
1 | Cc1ccccc1-c1nc2ncsc2cc1Cl [Example I-083] | 100 | 100 | 100 | 100 | 100 | 100 | 100 | 100 | 100 | 90 | 100 | 90 | – | – | – | – | – | –
2 | Cc1nc2nc(-c3ccccc3Cl)c(C)cc2s1 [Example I-103] | – | 90 | 90 | – | 90 | 90 | 100 | – | – | – | – | – | – | – | – | – | – | –
3 | CCOc1nc2nc(-c3ccccc3C)c(CC)cc2s1 [Example I-055] | – | – | 100 | 90 | 100 | 100 | 90 | – | – | – | – | – | 100 | 90 | 100 | – | – | –
4 | Cc1cc2sc(S)nc2nc1-c1ccccc1F [Example I-155] | – | 90 | 100 | – | 100 | 100 | – | 90 | 100 | 100 | – | 90 | 90 | – | – | 90 | – | –
5 | CCc1cc2sc(S)nc2nc1C1=CCCCC1 [Example I-176] | – | 90 | – | – | – | 100 | 90 | – | – | 90 | – | 90 | 90 | – | – | – | – | –
6 | Cc1cscc1-c1nc2ncsc2cc1Br [Example I-141] | 100 | – | 100 | – | 100 | 100 | 90 | 90 | 90 | 90 | – | 90 | – | 90 | – | 90 | 90 | –
7 | N#CCc1nc2nc(-c3ccccc3F)c(Br)cc2s1 [Example I-071] | – | – | 100 | 100 | 100 | 90 | 90 | 90 | 90 | 90 | 90 | 90 | 90 | – | – | 90 | – | 90
8 | Cc1cc(C)c(-c2nc3ncsc3cc2C)s1 [Example I-195] | – | – | 100 | 100 | 100 | 100 | 90 | 90 | – | 90 | – | – | 90 | – | 100 | – | 90 | 100
9 | Cc1cc2scnc2nc1-c1sc(Br)cc1C [Example I-198] | 100 | – | 100 | 90 | 100 | 100 | 90 | 90 | – | 90 | – | 100 | – | – | – | – | – | 90
10 | Cc1cc2sc([S+](C)[O-])nc2nc1-c1ccccc1F (stereo not drawn) [Example I-104] | – | 100 | – | – | 100 | 100 | 90 | 90 | 90 | 100 | – | 100 | 100 | – | – | 90 | 90 | –
11 | CCOC(=O)C(C#N)c1nc2nc(-c3ccccc3F)c(Br)cc2s1 (stereo not drawn) [Example I-086] | 90 | – | – | – | 90 | – | – | – | 100 | 90 | – | – | – | – | – | – | – | 100
12 | CSc1nc2nc(-c3ccccc3C)c(C)cc2s1 [Example I-043] | – | 90 | – | – | – | 90 | – | 100 | 100 | 90 | – | 90 | 90 | – | – | 90 | – | –
13 | Cc1ncccc1-c1nc2ncsc2cc1Br [Example I-129] | 90 | – | – | 90 | 100 | 100 | – | – | – | – | – | – | 90 | – | – | 90 | – | –
